Where two headings read alike, the source gives them in different places.
How the values were obtained:
[1] = test system: TAMH cells overexpressing Bcl-xL (TAMH-Bcl-xL, Tabx2s); experiment: Cytotoxicity / apoptosis induction in TAMH cells overexpressing Bcl-xL; assay type: cell-based; details: for Neo:Bcl: ratio Neo to Bcl-xL cells
Experimental: (§1) To examine the sensitivity of cells over-expressing Bcl-xL to various mitochondrial inhibitors and apoptosis inducers, cell lines over-expressing Bcl-xL were prepared and tested according to Hockenberry et al. U.S. Pat. No. 7,241,804, hereby incorporated by reference in its entirety. Competitive binding of compounds with fluorescent antimycin A3, and competitive binding of compounds with BH3 peptide and Bcl-2. Competitive binding of compounds with BH-3 peptide were also measured using Bcl-xL as previously described. Id.
(§2) Cell lines were grown in RPMI 1640 medium (Gibco, Grand Island, N.Y.) supplemented with 5% fetal bovine serum (Hyclone, Logan, Utah). Also shown is the ratio of TAMH cells expressing Bcl-xL to those expressing A142L (WT:142L). The assay measures the potency of various compounds with respect to inducing apoptosis in these cells.
(§3) The compounds described in Example 2 were tested for their ability to inhibit Bcl-2 gain-of-function in TAMH cells, TAMH cells overexpressing […] (TAMH-Bcl-xL), TAMH cells transfected with Neo vector (Neo), TAMH cells over expressing a variant of Bcl-xL (A142L) using the methods of Example 1. 3-6.
(§4) The effects of the compounds described in Example 8 on TAMH cells, TAMH cells overexpressing Bcl-xL (TAMH-Bcl-xL), TAMH cells transfected with Neo vector (Neo), TAMH cells over expressing a variant of Bcl-xL (A142L) is shown in Table 8
(§5) The effects of the compounds described in Example 10 on TAMH cells, TAMH cells overexpressing Bcl-xL (TAMH-Bcl-xL), TAMH cells transfected with Neo vector (Neo), TAMH cells over expressing a variant of Bcl-xL (A142L) is shown in the following Table 10

[2] = test system: TAMH cells transfected with Neo vector (Neo); experiment: Cytotoxicity / apoptosis induction in TAMH cells transfected with Neo vector; assay type: cell-based; details: TAMH Neo cells
Experimental: as §1, §2, §3, §4, §5

[3] = test system: TAMH cells over expressing a variant of Bcl-xL (A142L); experiment: Cytotoxicity / apoptosis induction in TAMH cells over expressing Bcl-xL variant A142L; assay type: cell-based; details: Table 4; for EC50: TAMH A142L cells; for WT:142L: ratio of TAMH cells expressing Bcl-xL to those expressing A142L
Experimental: as §1, §2, §3

[4] = test system: OVCAR-3, an ovarian tumor; experiment: Apoptosis induction against solid tumors in vitro, OVCAR-3; assay type: cell-based
Experimental: (§6) The ability of compounds from Example 2 to induce apoptosis against solid tumors in vitro was tested. Four solid tumors were tested: OVCAR-3, an ovarian tumor; COLO205, a colonic tumor; HOP-62 and H23, both NSCLC tumors. The experimental compounds were compared to 2MeAA and to ABT-737, a clinical stage compound owned by Abbott Pharma.
(§7) The ability of compounds of Example 8 to induce apoptosis against solid tumors in vitro was tested. Four solid tumors were tested: OVCAR-3, an ovarian tumor; COLO205, a colonic tumor; HOP-62 and H23, both NSCLC tumors. The experimental compounds, […]

COLO205, a colonic tumor = experiment: Apoptosis induction against solid tumors in vitro, COLO205; assay type: cell-based
Experimental: as §6, §7

HOP-62, NSCLC tumor = experiment: Apoptosis induction against solid tumors in vitro, HOP-62; assay type: cell-based
Experimental: as §6, §7

H23, NSCLC tumor = experiment: Apoptosis induction against solid tumors in vitro, H23; assay type: cell-based
Experimental: as §6, §7

[5] = test system: CFPAC-1, HPAF-II MIA PaCa, PaTu-1, PaTu-8988t, ASPC-1, FA-6, and PANC-1 cell lines; experiment: EC50 in a panel of pancreatic cell lines; assay type: cell-based; details: Homo sapiens; every pancreatic cell line of the panel, but for HPAF-II; FIG. 1
Experimental: The EC50 for the Compound 0216 (see structure above) was determined in a panel of pancreatic cell lines.
(§8) The panel included CFPAC-1, HPAF-II MIA PaCa, PaTu-1, PaTu-8988t, ASPC-1, FA-6, and PANC-1 cell lines. Pancreatic cancer samples were obtained from patients, with appropriate patient consent and approval of the Fred Hutchinson Cancer Research Center Institutional Review Board. Primary cells were maintained in Iscove's medium supplemented with 10% bovine calf serum, 100 ng·ml^−1 stem cell factor, and 50 ng·ml^−1 interleukin-3.
The EC50 values were measured with compound 216. […] This means that this molecule has a broad ability to induce apoptosis in a wide variety of pancreatic cancers.
as §8, with “institutional approval.” for “approval of the Fred Hutchinson Cancer Research Center Institutional Review Board.”
The EC50 values were measured with compound FH279.

Log P = details: Table 3
Colo205 cells = experiment: Mouse colon carcinoma xenograft model; assay type: in vivo, NOD/Les2 SCID/J mice; details: daily intraperitoneal administration, single agent; FIG. 4
Experimental: The ability of the experimental compounds to inhibit tumor growth in a body was tested in a mouse colon carcinoma xenograft model.
(§9) Six to nine-week old NOD/Les2 SCID/J mice were inoculated with 3×10^7 Colo205 cells by interscapular subcutaneous injection. Mice were maintained under specific pathogen-free conditions. Palpable tumor nodules were measured in two dimensions with calipers and tumor volumes calculated in mm3 as (length×width^2)/2. Blood samples were collected by retro-orbital bleed for human light chain measurements by ELISA using lambda-specific antibody (BD Biosciences). Animals were sacrificed by halothane inhalation, and histologic examination of the tumors and internal organs was performed. All experiments were approved by the FHCRC Institutional Animal Care and Use Committee.
Animals were treated by daily intraperitoneal administration of Compound 0511 (see structure above in Example 2).
as §9, with “Animals were sacrificed by halothane inhalation, and histologic examination of the tumors and internal organs was performed. All experiments were approved by the FHCRC Institutional Animal Care and Use Committee.” left out

[6] = Table 4, TAMH-Bcl-xL cells, read-out: Bcl-xL
[7] = Table 3, TAMH cells overexpressing Bcl-xL (Tabx2s), read-out: 2S EC50
[8] = Homo sapiens, COLO 205, Table 21
[9] = Homo sapiens, NCI-H23, Table 21

Compound: 2-methoxy antimycin A [Compound 2-MeAA, reference compound]
- EC50 [1, 6]: 2.5 µM
- Neo:Bcl ([1]; Table 4): 6.9
- EC50 ([2]; Table 4, read-out: Neo): 15.6 µM
- EC50 [3]: 10.3 µM
- WT:142L [3]: 4.1
- EC50 ([4]; Table 7): 3.5 µM
- EC50 ([4]; Table 21): 3.5 µM
- EC50 (COLO205, a colonic tumor; Table 7): 1.8 µM
- EC50 (COLO205, a colonic tumor; Table 21): 1.8 µM
- EC50 (HOP-62, NSCLC tumor; Table 7): 3.9 µM
- EC50 (HOP-62, NSCLC tumor; Table 21): 3.9 µM
- EC50 (H23, NSCLC tumor; Table 7): 2.7 µM
- EC50 (H23, NSCLC tumor; Table 21): 2.7 µM

Compound: CN(C)CC[C@H](CSc1ccccc1)Nc1ccc(S(=O)(=O)NC(=O)c2ccc(N3CCN(Cc4ccccc4-c4ccc(Cl)cc4)CC3)cc2)cc1[N+](=O)[O-] [ABT-737, reference compound]
- EC50 ([4]; Homo sapiens, Table 7): 17 µM
- EC50 (COLO205, a colonic tumor; Homo sapiens, COLO 205, Table 7): > 25 µM
- EC50 (COLO205, a colonic tumor; Table 21): > 25 µM
- EC50 (HOP-62, NSCLC tumor; Homo sapiens, Table 7): > 25 µM
- EC50 (HOP-62, NSCLC tumor; Table 21): > 25 µM
- EC50 (H23, NSCLC tumor; Homo sapiens, NCI-H23, Table 7): > 25 µM
- EC50 (H23, NSCLC tumor; Table 21): > 25 µM

Compound: O=[N+]([O-])c1cccc(/C=N/Nc2ccccn2)c1O [Compound 0208]
- EC50 [1, 6]: 4.4 µM
- Neo:Bcl ([1]; Table 4): 5.7
- EC50 ([2]; Table 4, read-out: Neo): > 25 µM
- EC50 [3]: 9.7 µM
- WT:142L [3]: 2.2
- EC50 ([4]; Table 7): 3.8 µM
- EC50 (COLO205, a colonic tumor; Table 7): 9.2 µM
- EC50 (HOP-62, NSCLC tumor; Table 7): 17.5 µM
- EC50 (H23, NSCLC tumor; Table 7): 8.2 µM

Compound: O=[N+]([O-])c1ccc(SCc2ccccc2)c2nonc12 [Compound 0216]
- EC50 ([1]; Mus musculus, Table 6, TAMH cells overexpressing Bcl-xL (Tabx2s), read-out: 2S EC50): 1.2 µM
- sensitivity to the apoptosis-inducing effects ([1]; TAMH cells overexpressing Bcl-xL compared to TAMH neo cells, FIG. 2): more sensitive
- EC50 ([2]; Mus musculus, Table 6, read-out: Neo EC50): 3.7 µM
- EC50 [5]: < 10 µM

Compound: Oc1c(Cl)cc(Cl)cc1/C=N/Nc1ccc(C(F)(F)F)cn1 [Compound 0235]
- EC50 [1, 6]: 3.9 µM
- Neo:Bcl ([1]; Table 4): 2.8
- EC50 ([2]; Table 4, read-out: Neo): 11 µM
- EC50 [3]: 8.5 µM
- WT:142L [3]: 2.2
- EC50 ([4]; Table 7): 2.7 µM
- EC50 (COLO205, a colonic tumor; Table 7): 6.7 µM
- EC50 (HOP-62, NSCLC tumor; Table 7): 8.3 µM
- EC50 (H23, NSCLC tumor; Table 7): 3.7 µM

Compound: Oc1c(Br)cc(Cl)cc1/C=N/Nc1ccc(C(F)(F)F)cn1 [Compound 0239]
- EC50 [1, 6]: 4.3 µM
- Neo:Bcl ([1]; Table 4): 4
- EC50 ([2]; Table 4, read-out: Neo): 17.2 µM
- EC50 [3]: 13.3 µM
- WT:142L [3]: 3.1
- EC50 ([4]; Table 7): 4.2 µM
- EC50 (COLO205, a colonic tumor; Table 7): > 25 µM
- EC50 (HOP-62, NSCLC tumor; Table 7): 19.1 µM
- EC50 (H23, NSCLC tumor; Table 7): 5.6 µM

Compound: COc1cc(Br)c(O)c(/C=N/NC(=O)c2ccccc2)c1 [Compound 0283]
- EC50 [1, 7]: 2.5 µM
- EC50 [1, 6]: 3.5 µM
- Neo:Bcl ([1]; Table 4): 7.1
- EC50 ([2]; Table 3, read-out: Neo EC50): ≥ 50 µM
- EC50 ([2]; Table 4, read-out: Neo): > 25 µM
- EC50 [3]: > 25 µM
- WT:142L [3]: 7.1
- Log P (Log P): 3.730

Compound: COc1cc(Br)cc(/C=N/Nc2ccc(C(F)(F)F)cc2)c1O [Compound 0333]
- EC50 [1, 7]: 2.2 µM
- EC50 [1, 6]: 2.7 µM
- Neo:Bcl ([1]; Table 4): 9.2
- EC50 ([2]; Table 3, read-out: Neo EC50): 26.9 µM
- EC50 ([2]; Table 4, read-out: Neo): > 25 µM
- EC50 [3]: 22.2 µM
- WT:142L [3]: 8.2
- Log P (Log P): 6.510

Compound: COc1cc(O)c(/C=N/Nc2ccccn2)cc1Br [Compound 0351]
- EC50 [1, 7]: 2.6 µM
- EC50 [1, 6]: > 25 µM
- Neo:Bcl ([1]; Table 4): 1
- EC50 ([2]; Table 3, read-out: Neo EC50): ≥ 50 µM
- EC50 ([2]; Table 4, read-out: Neo): > 25 µM
- EC50 [3]: > 25 µM
- WT:142L [3]: 1
- Log P (Log P): 3.03

Compound: CC(C)(C)c1cc(Br)c(O)c(/C=N/Nc2ccccn2)c1 [Compound 0401]
- EC50 [1, 7]: 1.7 µM
- EC50 [1, 6]: 4.4 µM
- Neo:Bcl ([1]; Table 4): 5.7
- EC50 ([2]; Table 3, read-out: Neo EC50): 40.8 µM
- EC50 ([2]; Table 4, read-out: Neo): > 25 µM
- EC50 [3]: > 25 µM
- WT:142L [3]: 2.2
- Log P (Log P): 4.810

Compound: O=C1c2ccccc2C(=O)c2c1n[n+]([O-])n2CCCN1CCN(c2ccccn2)CC1 [Compound 0511]
- tumor growth (Colo205 cells): effective in inhibiting tumor growth

Compound: Oc1c(Cl)cc(Cl)cc1/C=N/Nc1ccc(C(F)(F)F)cn1 [FH092]
- EC50 ([4]; Homo sapiens, Table 21): 2.7 µM
- EC50 (COLO205, a colonic tumor; [8]): 6.7 µM
- EC50 (HOP-62, NSCLC tumor; Homo sapiens, Table 21): 8.3 µM
- EC50 (H23, NSCLC tumor; [9]): 3.7 µM

Compound: Oc1c(Br)cc(Cl)cc1/C=N/Nc1ccc(C(F)(F)F)cn1 [FH096]
- EC50 ([4]; Homo sapiens, Table 21): 4.2 µM
- EC50 (COLO205, a colonic tumor; [8]): > 25 µM
- EC50 (HOP-62, NSCLC tumor; Homo sapiens, Table 21): 19.1 µM
- EC50 (H23, NSCLC tumor; [9]): 5.6 µM

Compound: O=[N+]([O-])c1cccc(/C=N/Nc2ccc3ccccc3n2)c1O [FH297]
- EC50 ([4]; Homo sapiens, Table 21): 1.5 µM
- EC50 (COLO205, a colonic tumor; [8]): 1 µM
- EC50 (HOP-62, NSCLC tumor; Homo sapiens, Table 21): 2.7 µM
- EC50 (H23, NSCLC tumor; [9]): 2.8 µM

Compound: O=[N+]([O-])c1ccc(O)c(/C=N/Nc2nccc3ccccc23)c1O [FH314]
- EC50 ([4]; Homo sapiens, Table 21): 3.8 µM
- EC50 (COLO205, a colonic tumor; [8]): 9.2 µM
- EC50 (HOP-62, NSCLC tumor; Homo sapiens, Table 21): 17.5 µM
- EC50 (H23, NSCLC tumor; [9]): 8.2 µM

— patent US8865901B2, “Gain-of-function Bcl-2 inhibitors” (priority 2009, dated 2014)
